# Laboratory results reported in paper doi:10.1101/2025.10.24.684310v1 (biorxiv, 2025).
# Experiments:
# [1] = in vitro; conditions: PAMPA
# [2] = biological target: hERG (Homo sapiens, UniProt Q12809, species not given); assay: hERG channel inhibition; format: cell-based
# [3] = in vitro; conditions: human, liver microsomes
# [4] = in vitro; conditions: human, liver microsomes; remark: listed apart in the source
# [5] = in vitro; conditions: human, liver microsomes; remark: listed apart in the source
# [6] = in vitro; conditions: PAMPA; remark: listed apart in the source
# [7] = biological target: T1, CYP1A2 (Homo sapiens, UniProt P05177); assay: in vitro
# T1 sequence (P05177 1-516): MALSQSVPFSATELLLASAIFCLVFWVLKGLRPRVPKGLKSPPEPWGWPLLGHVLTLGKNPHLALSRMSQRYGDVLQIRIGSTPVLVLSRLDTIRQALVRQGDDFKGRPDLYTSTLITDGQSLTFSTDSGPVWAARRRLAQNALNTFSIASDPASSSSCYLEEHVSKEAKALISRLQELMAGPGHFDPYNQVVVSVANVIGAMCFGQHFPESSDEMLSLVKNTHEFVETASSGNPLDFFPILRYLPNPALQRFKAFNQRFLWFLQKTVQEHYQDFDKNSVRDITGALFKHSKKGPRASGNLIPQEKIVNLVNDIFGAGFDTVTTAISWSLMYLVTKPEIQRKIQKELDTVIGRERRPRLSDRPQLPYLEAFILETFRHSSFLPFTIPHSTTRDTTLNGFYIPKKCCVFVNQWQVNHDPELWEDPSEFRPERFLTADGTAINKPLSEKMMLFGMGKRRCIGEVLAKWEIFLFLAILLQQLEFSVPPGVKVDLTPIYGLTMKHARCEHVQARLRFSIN
# [8] = biological target: CYP2C9 (Homo sapiens, UniProt P11712); assay: in vitro
# Sequence of CYP2C9 (P11712 whole entry): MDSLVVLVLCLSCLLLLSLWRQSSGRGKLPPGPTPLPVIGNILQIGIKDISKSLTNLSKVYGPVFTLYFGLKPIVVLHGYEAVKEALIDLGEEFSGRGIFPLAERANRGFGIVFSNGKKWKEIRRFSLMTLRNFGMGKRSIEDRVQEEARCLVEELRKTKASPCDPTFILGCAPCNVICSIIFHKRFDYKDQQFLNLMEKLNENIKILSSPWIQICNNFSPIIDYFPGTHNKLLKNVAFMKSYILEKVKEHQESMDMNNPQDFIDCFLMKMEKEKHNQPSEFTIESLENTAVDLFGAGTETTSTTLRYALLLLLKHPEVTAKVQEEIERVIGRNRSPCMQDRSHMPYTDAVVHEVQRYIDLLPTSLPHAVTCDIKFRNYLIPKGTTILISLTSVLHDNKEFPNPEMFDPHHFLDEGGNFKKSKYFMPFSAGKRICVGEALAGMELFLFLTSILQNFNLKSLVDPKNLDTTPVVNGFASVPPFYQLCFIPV
# [9] = biological target: CYP2C19 (Homo sapiens, UniProt P33261); assay: in vitro
# Sequence of CYP2C19 (P33261 whole entry): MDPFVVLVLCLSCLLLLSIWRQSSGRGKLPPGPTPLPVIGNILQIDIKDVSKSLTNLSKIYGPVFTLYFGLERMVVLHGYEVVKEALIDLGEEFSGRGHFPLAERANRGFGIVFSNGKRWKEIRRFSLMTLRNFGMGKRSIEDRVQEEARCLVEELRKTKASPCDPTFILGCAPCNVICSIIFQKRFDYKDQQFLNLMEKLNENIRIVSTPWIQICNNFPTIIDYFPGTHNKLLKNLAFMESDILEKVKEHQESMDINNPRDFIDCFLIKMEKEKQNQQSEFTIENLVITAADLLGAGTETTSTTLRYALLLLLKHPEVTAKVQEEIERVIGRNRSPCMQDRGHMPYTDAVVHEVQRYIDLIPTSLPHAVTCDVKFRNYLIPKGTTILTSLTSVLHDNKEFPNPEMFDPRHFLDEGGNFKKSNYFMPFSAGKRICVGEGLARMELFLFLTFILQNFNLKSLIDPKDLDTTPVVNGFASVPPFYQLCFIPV
# [10] = biological target: CYP2D6 (Homo sapiens, UniProt P10635); assay: in vitro
# Sequence of CYP2D6 (P10635 whole entry): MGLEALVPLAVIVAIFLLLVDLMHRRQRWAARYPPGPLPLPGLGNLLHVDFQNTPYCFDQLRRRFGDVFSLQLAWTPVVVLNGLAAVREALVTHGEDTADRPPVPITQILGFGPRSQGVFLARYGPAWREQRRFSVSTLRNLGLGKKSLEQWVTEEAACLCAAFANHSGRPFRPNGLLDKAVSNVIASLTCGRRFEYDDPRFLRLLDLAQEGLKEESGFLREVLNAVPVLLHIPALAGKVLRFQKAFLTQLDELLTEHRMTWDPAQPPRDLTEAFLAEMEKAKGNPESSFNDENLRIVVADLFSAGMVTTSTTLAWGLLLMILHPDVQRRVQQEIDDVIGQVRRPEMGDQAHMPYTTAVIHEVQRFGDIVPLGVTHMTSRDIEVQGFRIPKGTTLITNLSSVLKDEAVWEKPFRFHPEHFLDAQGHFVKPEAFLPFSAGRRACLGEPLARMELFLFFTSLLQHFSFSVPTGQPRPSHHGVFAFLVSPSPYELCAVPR
# Sequence of hERG (Q12809 whole entry): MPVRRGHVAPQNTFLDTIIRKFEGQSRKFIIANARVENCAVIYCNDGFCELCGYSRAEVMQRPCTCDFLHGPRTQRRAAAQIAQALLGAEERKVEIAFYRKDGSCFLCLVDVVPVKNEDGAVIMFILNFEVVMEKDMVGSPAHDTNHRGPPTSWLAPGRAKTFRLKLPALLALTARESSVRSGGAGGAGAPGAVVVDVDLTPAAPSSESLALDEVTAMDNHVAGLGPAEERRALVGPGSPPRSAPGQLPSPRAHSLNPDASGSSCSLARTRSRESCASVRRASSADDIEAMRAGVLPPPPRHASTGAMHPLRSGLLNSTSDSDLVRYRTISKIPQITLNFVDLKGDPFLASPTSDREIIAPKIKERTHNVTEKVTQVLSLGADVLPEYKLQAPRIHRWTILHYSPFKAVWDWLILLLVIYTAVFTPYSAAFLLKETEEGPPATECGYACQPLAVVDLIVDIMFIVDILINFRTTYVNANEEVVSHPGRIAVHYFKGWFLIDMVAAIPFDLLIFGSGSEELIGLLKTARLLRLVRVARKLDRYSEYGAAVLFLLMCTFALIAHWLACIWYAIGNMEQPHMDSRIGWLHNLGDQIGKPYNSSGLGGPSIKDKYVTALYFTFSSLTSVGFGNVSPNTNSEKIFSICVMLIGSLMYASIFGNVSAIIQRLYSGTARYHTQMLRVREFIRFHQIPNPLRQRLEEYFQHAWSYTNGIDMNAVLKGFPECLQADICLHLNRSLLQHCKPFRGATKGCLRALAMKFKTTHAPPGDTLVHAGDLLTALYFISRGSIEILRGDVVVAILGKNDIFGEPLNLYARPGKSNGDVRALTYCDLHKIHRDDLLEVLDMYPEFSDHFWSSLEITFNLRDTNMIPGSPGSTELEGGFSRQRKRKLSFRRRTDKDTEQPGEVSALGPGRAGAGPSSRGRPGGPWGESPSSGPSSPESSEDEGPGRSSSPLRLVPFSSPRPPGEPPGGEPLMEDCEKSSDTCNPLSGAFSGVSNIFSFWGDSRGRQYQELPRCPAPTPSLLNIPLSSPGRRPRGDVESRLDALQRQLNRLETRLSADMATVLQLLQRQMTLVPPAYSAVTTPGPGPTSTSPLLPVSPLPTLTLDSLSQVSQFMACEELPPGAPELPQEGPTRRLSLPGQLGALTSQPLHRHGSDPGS
Papp [1] [×10⁻⁶ cm/s],Papp [6] [×10⁻⁶ cm/s],SMILES,other results
3.6 ± 0.1,–,CC1=C(C(=O)Nc2ccc(Cl)cc2)C(c2ccccc2)NC(=S)N1 (stereo not shown) [CT1],–
7.1 ± 0.1,–,CC1=C(C(=O)Nc2ccc(Cl)cc2)C(c2ccc(Cl)cc2)NC(=S)N1 (stereo not shown) [CT2],–
3.4 ± 0.3,–,COc1ccc(C2NC(=S)NC(C)=C2C(=O)Nc2ccc(Cl)cc2)cc1 (stereo not shown) [CT3],–
4.6 ± 0.2,–,CC1=C(C(=O)Nc2ccc(Cl)cc2)C(c2ccc(C)cc2)NC(=S)N1 (stereo not shown) [CT4],–
7.6 ± 1,–,CC1=C(C(=O)Nc2ccc(Cl)cc2)C(c2ccc(Cl)c(Cl)c2)NC(=S)N1 (stereo not shown) [CT5],–
9.5 ± 0.2,–,CC1=C(C(=O)Nc2ccc(Cl)cc2)C(c2ccccc2)NC(=O)N1 (stereo not shown) [CU1],–
7.7 ± 0.2,–,CC1=C(C(=O)Nc2ccc(Cl)cc2)C(c2ccc(Cl)cc2)NC(=O)N1 (stereo not shown) [CU2],–
5.9 ± 0.2,–,COc1ccc(C2NC(=O)NC(C)=C2C(=O)Nc2ccc(Cl)cc2)cc1 (stereo not shown) [CU3],–
5.3 ± 0.2,–,CC1=C(C(=O)Nc2ccc(Cl)cc2)C(c2ccc(C)cc2)NC(=O)N1 (stereo not shown) [CU4],–
13.6 ± 0.5,–,CC1=C(C(=O)Nc2ccc(Cl)cc2)C(c2ccc(Cl)c(Cl)c2)NC(=O)N1 (stereo not shown) [CU5],–
–,12.2 ± 0.7,CCOC(=O)C1=C(C)NC(=S)NC1c1ccc(Cl)cc1 (stereo not shown) [T2],IC50 [2]: > 10 µM; remaining at 1 h [3]: 77.7%; half-life [4]: 2.36 h; microsomal CLint [5]: 7.8 µL/min/mg
–,–,"CCOC(=O)C1=C(C)NC(=S)NC1c1ccc(OC)cc1 (stereo not shown) [T3, Ethyl 4-(4-methoxyphenyl)-6-methyl-2-thioxo-1,2,3,4-tetrahydropyrimidine-5-carboxylate]",inhibition at 1 µM [7]: -13.3 ± 2%; inhibition at 1 µM [8]: 3.7 ± 1.1%; inhibition at 1 µM [9]: 11.7 ± 4.5%; inhibition at 1 µM [10]: -3.2 ± 0.2%
–,8.1 ± 0.5,CCOC(=O)C1=C(C)NC(=S)NC1c1ccc(OC)cc1 (stereo not shown) [T3],IC50 [2]: > 10 µM
–,10.3 ± 0.3,CCOC(=O)C1=C(C)NC(=S)NC1c1ccc(C)cc1 (stereo not shown) [T4],–
–,16.2 ± 0.5,CCOC(=O)C1=C(C)NC(=S)NC1c1ccc(Cl)c(Cl)c1 (stereo not shown) [T5],–
–,> 30,CCOC(=O)C1=C(C)NC(=S)NC1c1ccc(C(F)(F)F)cc1 (stereo not shown) [T6],–
–,–,"CCOC(=O)C1=C(C)NC(=S)NC1c1ccccc1Cl (stereo not shown) [T9, Ethyl 4-(2-chlorophenyl)-6-methyl-2-thioxo-1,2,3,4-tetrahydropyrimidine-5-carboxylate]",remaining at 1 h [3]: 82.4%; half-life [4]: 3.69 h; microsomal CLint [5]: 3 µL/min/mg
–,0.1,CCOC(=O)C1=C(C)NC(=S)NC1c1ccc(OCC)cc1 (stereo not shown) [T10],–
–,17.7 ± 0.9,CCOC(=O)C1=C(C)NC(=S)NC1c1cccc(O)c1 (stereo not shown) [T12],–
–,18.4 ± 1.6,CCOC(=O)C1=C(C)NC(=S)NC1c1ccc(F)cc1 (stereo not shown) [T13],–
–,3.5 ± 0.6,COC(=O)C1=C(C)NC(=S)NC1c1cccc(OC)c1 (stereo not shown) [T14],–
–,15.8 ± 0.5,CCOC(=O)C1=C(C)NC(=O)NC1c1ccc(Cl)c(Cl)c1 (stereo not shown) [U5],–
–,11.5 ± 0.4,CCOC(=O)C1=C(C)NC(=O)NC1c1ccc(C(F)(F)F)cc1 (stereo not shown) [U6],–
–,15.3 ± 1,CCOC(=O)C1=C(C)NC(=O)NC1c1ccc(Cl)cc1Cl (stereo not shown) [U7],–
–,2 ± 0.2,COC(=O)C1=C(C)NC(=O)NC1c1cccc(Br)c1 (stereo not shown) [U12],–
–,0.003 ± 0.001,CCOC(=O)C1=C(C)NC(=O)NC1c1cccc(O)c1 (stereo not shown) [U13],–
–,–,"CCOC(=O)C1=C(C)NC(=O)NC1c1ccc(F)cc1 (stereo not shown) [U14, Ethyl 4-(4-fluorophenyl)-6-methyl-2-oxo-1,2,3,4-tetrahydropyrimidine-5-carboxylate]",remaining at 1 h [3]: 74.1%; half-life [4]: 2.47 h; microsomal CLint [5]: 5.4 µL/min/mg
–,6.2 ± 0.3,CCOC(=O)C1=C(C)NC(=O)NC1c1ccc(F)cc1 (stereo not shown) [U14],–
–,–,"COC(=O)C1=C(C)NC(=O)NC1c1ccccc1 (stereo not shown) [U15, Methyl 6-methyl-2-oxo-4-phenyl-1,2,3,4-tetrahydropyrimidine-5-carboxylate]",remaining at 1 h [3]: 93%; half-life [4]: 10.7 h; microsomal CLint [5]: 1.2 µL/min/mg
